Measured values from patent publication US10815312B2, “Bifunctional peptide having capability to permeate cells and capability to regenerate muscles and use thereof” (Seoul National University R&DB Foundation, priority 2018, dated 2020).

Key:
intracellular HDAC5 = molecular target: T1, intracellular HDAC5 (Mus musculus, UniProt Q9Z2V6); test: Binding ability to intracellular HDAC5 by immunoprecipitation; details: C2C12 cells treated for 2 hours, immunoprecipitation with HDAC5 antibody, western blotting with FITC antibody (FIG. 2)
T1 construct: endogenous in cells; host or cells: C2C12 muscle precursor cells
Procedure: Muscle precursor cells (C2C12) were transplanted at a density of 1.5×10^6/well in a 10 pi dish and cultured in EMEM (Eagle's Minimal Essential Medium, ATCC). The medium was replaced at 24-hour intervals until confluency of cells reached 50%. When the confluency was 50%, the medium was replaced with Essential 8 medium, and the cells were treated with the peptide of SEQ ID NO: 1 for 2 hours. Then, the binding ability to intracellular HDAC5 was identified by immunoprecipitation. The lysate harvested with RIPA buffer containing a protease inhibitor was quantified through a BCA assay. Each sample quantified with a minimum volume of 500 μl at a concentration of 1 μg/ml was collected in a microtube, 2 μg of HDAC5 first antibody was added thereto, and the mixture was reacted under rotation for 16 hours at 4° C. in a refrigerated state. 20 μl of protein A/G agarose beads were added and reacted at 4° C. for 3 hours. Then, the beads were centrifuged, washed three times with DPBS and heated at 85° C. for 5 minutes in a 2× sample buffer, and only the supernatant was obtained, followed by western blotting and identification using an FITC antibody.

mesenchymal stem cells = test: Differentiation of stem cells into myocytes, gene expression of muscle differentiation markers by real-time RT-PCR; format: cell-based; details: 100 μM peptide, muscle differentiation medium, real-time RT-PCR (FIG. 3)
Procedure: 3×10^6 mesenchymal stem cells were cultured in a bacterial culture dish for 3 days to form spheroids. The medium used was low-glucose DMEM with 10% FBS and 1% P/S. After 3 days, the supernatant was removed and only the spheroids were collected and seeded in a cell culture dish coated with 10 ug/ml of collagen type I for 4 days. The medium used was DMEM/F12 with 1 ng/ml TGFb (transforming growth factor beta), 1×NEAA (nonessential amino acids) and 1×ITS (insulin-transferrin selenium). After 4 days, the medium was changed to low-glucose DMEM with 2% FBS and 10 ng/ml IGF-1 (insulin growth factor-1), differentiation was further induced for 2 weeks, and muscle differentiation markers were identified. The cells were treated with 100 μM of the group not treated with peptide using only a muscle differentiation medium (NT), 100 μM of the groups treated with the peptides of SEQ ID NOS: 1 to 8 and 100 μM of the control peptide (SEQ ID NO: 9) in order to determine the efficiency of expression of the muscle differentiation markers by the peptides. The levels of gene expression of dystrophin and myogenin, as muscle differentiation markers, were measured through real-time RT-PCR. The base sequences of the PCR primers used for amplification of respective genes are as follows.

T1 sequence (Q9Z2V6 whole entry): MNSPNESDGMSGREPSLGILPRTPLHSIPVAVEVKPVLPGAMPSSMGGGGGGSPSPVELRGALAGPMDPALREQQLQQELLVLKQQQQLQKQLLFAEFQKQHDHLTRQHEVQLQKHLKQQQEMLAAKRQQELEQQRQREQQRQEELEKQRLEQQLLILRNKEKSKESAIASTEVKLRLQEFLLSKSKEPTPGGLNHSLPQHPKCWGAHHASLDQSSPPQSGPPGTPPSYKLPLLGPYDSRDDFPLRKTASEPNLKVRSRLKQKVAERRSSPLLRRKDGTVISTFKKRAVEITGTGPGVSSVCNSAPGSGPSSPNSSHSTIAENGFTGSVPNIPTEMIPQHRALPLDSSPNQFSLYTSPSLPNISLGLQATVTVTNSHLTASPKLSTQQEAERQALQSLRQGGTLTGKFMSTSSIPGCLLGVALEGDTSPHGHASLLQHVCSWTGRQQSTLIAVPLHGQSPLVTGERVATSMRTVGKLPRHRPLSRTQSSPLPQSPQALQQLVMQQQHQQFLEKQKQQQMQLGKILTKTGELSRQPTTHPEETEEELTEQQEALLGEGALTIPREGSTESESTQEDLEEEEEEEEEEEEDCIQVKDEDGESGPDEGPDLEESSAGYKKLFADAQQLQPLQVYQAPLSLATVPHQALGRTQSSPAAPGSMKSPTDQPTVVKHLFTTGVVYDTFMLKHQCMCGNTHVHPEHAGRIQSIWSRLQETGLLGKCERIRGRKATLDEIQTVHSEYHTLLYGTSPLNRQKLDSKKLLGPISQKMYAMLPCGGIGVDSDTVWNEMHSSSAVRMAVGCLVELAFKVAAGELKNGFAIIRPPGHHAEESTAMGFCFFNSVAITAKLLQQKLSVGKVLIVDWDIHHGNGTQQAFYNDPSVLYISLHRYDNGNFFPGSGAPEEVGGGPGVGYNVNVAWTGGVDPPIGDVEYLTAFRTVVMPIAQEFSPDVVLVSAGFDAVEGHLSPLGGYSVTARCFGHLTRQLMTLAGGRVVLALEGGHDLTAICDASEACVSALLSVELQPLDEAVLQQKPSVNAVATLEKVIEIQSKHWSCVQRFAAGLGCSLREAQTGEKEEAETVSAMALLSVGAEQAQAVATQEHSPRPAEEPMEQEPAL

binding to intracellular HDAC5 (intracellular HDAC5)	Sequence	gene expression of dystrophin (mesenchymal stem cells)	gene expression of myogenin (mesenchymal stem cells)
binds to intracellular HDAC5	GKCSTRGRKCCRRKK [SEQ ID NO: 1]	–	–
–	GLRSKSKKFRRPDIQYPDA (Control peptide C1) [SEQ ID NO: 9]	did not exhibit an increase in gene expression	did not exhibit an increase in gene expression
